The NIST ThermoML archive (doi:10.1016/j.fluid.2018.07.014)
± gives the expanded uncertainty stated by the source.

Test: Boiling temperature at pressure P
Conditions: Liquid, Closed cell (Static) method

Boiling temperature at pressure P (9.6 kPa)	Boiling temperature at pressure P (13.7 kPa)	Boiling temperature at pressure P (23.8 kPa)	Boiling temperature at pressure P (38.9 kPa)	Boiling temperature at pressure P (54.5 kPa)	Boiling temperature at pressure P (69.5 kPa)	Boiling temperature at pressure P (91.7 kPa)	Boiling temperature at pressure P (7.1 kPa)	Boiling temperature at pressure P (8.9 kPa)	Boiling temperature at pressure P (13.9 kPa)	Boiling temperature at pressure P (24.1 kPa)	Boiling temperature at pressure P (39.1 kPa)	Boiling temperature at pressure P (52.7 kPa)	Boiling temperature at pressure P (69.3 kPa)	Boiling temperature at pressure P (6.9 kPa)	Boiling temperature at pressure P (9 kPa)	Boiling temperature at pressure P (14.1 kPa)	Boiling temperature at pressure P (39.5 kPa)	Boiling temperature at pressure P (54.3 kPa)	Boiling temperature at pressure P (92.1 kPa)	Structure (SMILES)
30.2 ± 7.1 °C	36.8 ± 5.2 °C	47 ± 3.9 °C	57.0 ± 3.1 °C	64.4 ± 2.7 °C	69.7 ± 2.4 °C	76.6 ± 2.4 °C	–	–	–	–	–	–	–	–	–	–	–	–	–	CCO [ethanol]
–	–	–	–	–	–	141.8 ± 2.9 °C	72.2 ± 10 °C	77.6 ± 9 °C	88.0 ± 6.9 °C	101.8 ± 4.9 °C	115.2 ± 3.7 °C	122.6 ± 3 °C	130.8 ± 2.9 °C	–	–	–	–	–	–	CCCCC(=O)OCC [ethyl pentanoate]
–	–	–	–	–	90.0 ± 2.6 °C	–	–	–	–	64.2 ± 4.3 °C	–	–	–	38.8 ± 8.5 °C	44 ± 7.7 °C	53 ± 6 °C	75.7 ± 3.4 °C	83.8 ± 2.8 °C	98.0 ± 2.5 °C	O [water]
